From US6518296B1, “Substituted 3-thiocarbamoylpyrazoles” (Bayer Aktiengesellschaft, priority 1998, dated 2003)

Assays:
[1] = tested on: Boophilus microplus resistant/SP-resistant Parkhurst strain; assay: Test with Boophilus microplus resistant/SP-resistant Parkhurst strain (injection, inhibition of oviposition); format: in vivo; conditions: 20 μg/animal; injected into the abdomen; after 7 days
Protocol: Test with Boophilus microplus resistantlSP-resistant Parkhurst strain
(§1) Test animals: Adult females which have sucked themselves full
(§2) Solvent: Dimethyl sulphoxide
20 mg of active compound are dissolved in 1 ml of dimethyl sulphoxide, while dilute concentrations are prepared by dilution with the same solvent.
The test is carried out in 5 replications. […] of the solutions is injected into the abdomen, the animals are transferred into dishes and kept in a climatized room. After 7 days, the activity control is carried out for inhibition of ovi position. An activity of 100% means that none of the ticks has deposited eggs.

[2] = tested on: green peach aphid (Myzus persicae); assay: Myzus test; format: in vivo; conditions: active compound concentration of 0.1%; after 6 days; dipped cabbage leaves
Protocol: Solvent: 7 parts by weight of dimethylformamide
Emulsifier: 1 part by weight of alkylaryl polyglycol ether
To produce a suitable preparation of active compound, 1 part by weight of active compound is mixed with the stated amounts of solvent and emulsifier, and the concentrate is diluted with water to the desired concentration.
Cabbage leaves (Brassica oleracea) which are heavily infested by the green peach aphid (Mycus persicae) are treated by being dipped into the preparation of active compound of the desired concentration.
After the desired period of time, the kill in % is determined. 100% means that all aphids have been killed; 0% means that none of the aphids have been killed.

[3] = tested on: Boophilus microplus resistant/SP-resistant Parkhurst strain; assay: Test with Boophilus microplus resistant/SP-resistant Parkhurst strain (dip test, kill); format: in vivo; conditions: active compound concentration of 100 ppm; dipped for 1 minute
Protocol: Test with Boophilus microplus resistant/SP-resistant Parkhurst strain
as §1, §2
(§3) 20 mg of active compound are dissolved in 1 ml of dimethyl sulphoxide, while dilute concentrations are prepared by dilution with dist. H2O.
10 adult Boophilus microplus res. are dipped for 1 minute into the preparation of active compound to be tested. The animals are transferred into plastic beakers and kept in a climatized room, and the kill rate is then determined.
100% means that all ticks have been killed; 0% means that none of the ticks have been killed.

Lucilia cuprina larvae = assay: Blowfly larvae test/development-inhibitory action; format: in vivo; conditions: active compound concentration of 100 ppm, read-out: activity (development-inhibitory action; 100% means that no flies have hatched)
Protocol: Blowfly larvae test/development-inhibitory action
Test animals: Lucilia cuprina larvae
as §2, §3
About 20 Lucilia cuprina larvae are introduced into a test tube containing about 1 cm^3 of horse meat and 0.5 ml of the preparation of active compound. After 24 and 48 hours, the activity of the preparation of active compound is determined. The test tubes are transferred into beakers whose bottom is covered with sand. After a further 2 days, the test tubes are removed and the pupae are counted.
The activity of the active compound preparation is assessed by the number of flies which have hatched after 1.5 times the development time of an untreated control. 100% means that no flies have hatched; 0% means that all flies have hatched normally.

CCSc1c(C(N)=S)nn(-c2c(Cl)cc(C(F)(F)F)cc2Cl)c1N [Preparation Example 1, 5-amino-4-ethylthio-l-(2,6-dichloro-4-trifluoro-methylphenyl)-3-thiocarbamoyl-pyrazole]
activity (inhibition of oviposition) [1]: 100%
kill [2]: 90%
activity (kill rate of ticks) [3]: 100%
melting point: 101 °C
inhibition at 100 ppm (Lucilia cuprina larvae): 100%
